Source: patent US9233090B2, “Cysteine and food intake” (Nestec S.A., priority 2010, dated 2016)

Key:
Format in all cases: in vivo, rat
[1] = Skeletal muscle and organ weights of old rats fed supplemented diets; details: for Colon weight / EDL weight / Gastrocnemius weight / Kidneys weight / Liver weight / Small intestine weight / Soleus weight / Tibialis weight: end of supplementation
Source text: (§1) A cohort of male Wistar rats born and breed in a non-specific-pathogen-free animal facility (Unité de Nutrition Comparée, INRA Theix) was used for the study. When rats were 18 month old they were weighted monthly to evaluate their body weight change and blood was sampled in order to quantify inflammatory markers (acute phase proteins: α2-macroglobulin and fibrinogen). At the age of 21 months, rats were divided in two groups matched for body weight, body weight loss, and inflammatory status. Rats were fed with supplemented diets, starting at the age of 21 months and for 14 weeks. The cysteine diet consisted in the commercial pelleted diet A04 (SAFE/UAR, Scientific Animal Food and Engineering, Villemoisson-sur-Orge, France) supplemented with 4.0 g of L-cysteine (Sigma) per kg, and the control diet was supplemented with 2.9 g of L-alanine (Jerafrance) per kg (iso-nitrogenous diets). Experimental diets have been prepared at the Unite Préparation Aliments Expérimentaux, INRA Jouy-en-Josas.

old rats [2] = assay: Food intake of old rats fed supplemented diets for 14 weeks; details: for decrease in food intake per week: male Wistar rats, supplemented diet from age 21 months for 14 weeks, linear regression
Source text: as §1
Food intake (FIG. 4) decreased with time and was lower for the alanine diet.

[3] = Body weight of old rats fed supplemented diets; details: for Final BW: body weight at end of supplementation; for Initial BW: body weight at start of supplementation (baseline), age 21 months; for BW change: rat, in vivo
Source text: as §1
The decrease accelerated at the end of the experiment since body weights of the two last weeks were different from each of the previous ones.

old rats [4] = assay: Survival of old rats fed supplemented diets (Kaplan-Meier, log-rank test); details: male Wistar rats, supplemented diet from age 21 months for 14 weeks; log-rank test=0.054, P=0.816
Source text: as §1
Survival curves were generated by Kaplan-Meier method (FIG. 2) and compared by the log-rank test in order to analyze the effect of cysteine supplementation on mortality.

| SMILES | Colon weight [1] [g] | EDL weight [1] [mg] | Gastrocnemius weight [1] [g] | Kidneys weight [1] [g] | Liver weight [1] [g] | Small intestine weight [1] [g] | Soleus weight [1] [mg] | Tibialis weight [1] [mg] | decrease in food intake per week (old rats [2]) | Final BW [3] [g] | Initial BW [3] [g] | BW change [3] [%/13 wk] | liver weight compared with control rats ([1]; cysteine supplemented rats vs alanine control) | effect on decrease in food intake associated with aging (old rats [2]; 4 g cysteine per kg supplemented diet, rats about 22.5 months old) | mortality rate (old rats [4]) |
| --- | --- | --- | --- | --- | --- | --- | --- | --- | --- | --- | --- | --- | --- | --- | --- |
| C[C@H](N)C(=O)O [Alanine, L-alanine, reference compound] | 2.68 ± 0.06 | 222 ± 4 | 2.51 ± 0.04 | 4.32 ± 0.19 | 18.4 ± 0.5 | 11.4 ± 0.3 | 177 ± 3 | 888 ± 16 | 0.96 % per week | 595 ± 13 | 657 ± 10 | −7.03 ± 1.60 |  |  |  |
| N[C@@H](CS)C(=O)O [Cysteine, L-cysteine] | 2.76 ± 0.07 | 228 ± 4 | 2.51 ± 0.04 | 4.31 ± 0.17 | 20.0 ± 0.4 | 12.0 ± 0.2 | 178 ± 4 | 889 ± 18 | unchanged | 613 ± 12 | 661 ± 10 | −6.27 ± 1.18 | higher liver weight than control rats | blunts the decrease in food intake | did not change |
